# Source: patent US20230381223A1, “ORAL PYROPHOSPHATE FOR USE IN REDUCING CALCIFICATION” (PYROGENYX INC., priority 2020, published 2023)
# Legend:
# Abcc6−/− mice = conditions: female Abcc6−/− mice, oral, 10 mM in drinking water
# Description: Briefly, mice were kept under routine laboratory conditions with a 12-hour light-dark cycle and ad libitum access to water and chow. Anesthesia was carried out by intraperitoneal injection of the mixture of Zoletil (30 mg/kg, Virbac, France), Xylazine (12.5 mg/kg, Produlab Pharma, The Netherlands) and Butorphanol (3 mg/kg, Richterpharma, Austria) during all procedures.
# In this experiment calcification was induced in the myocardium and five days after we determined the Ca^2+-content of the heart.
# [1] = healthy volunteers, oral, gelatin capsules, 39 mg pyrophosphate/kg
# Description: To avoid the unpleasant taste we used capsulated PPi salts instead of water-based solution as the form of delivery. We tested two different capsules: gelatin and cellulose. Subsequently, we determined how PPi is absorbed in individuals affected by PXE compared to its absorption in non-PXE volunteers.
# Human studies were conducted in accordance with the Declaration of Helsinki. The oral uptake studies involving healthy human volunteers (female and male) were conducted and all patient samples were handled in an anonymized form. The oral uptake study involving PXE patients involved mutation analysis confirming the diagnosis in PXE patients. The diagnosis of PXE was based on characteristic skin findings, supported by characteristic histopathology, and ocular and vascular involvement.
# Gelatin capsules were obtained from Molar Chemicals (Halasztelek, Hungary), cellulose capsules were obtained from Capsuline (Davie, Fla.).
# Volunteers and PXE patients (after overnight fasting) were involved in the studies. The duration of ingestion was less than one minute. Blood samples were collected from the vena cubiti before ingestion (0 min) and after 30, 60, 120 and 240 min into CTAD anticoagulated tubes (BD, Franklin Lakes, N.J.), and filtered through Centrisart I 300,000 MWCO filters (Sartorius, Frankfurt, Germany). […]
SMILES,calcification of the heart (total Ca2+-content) five days after cryo-injury (Abcc6−/− mice),GI discomfort [1]
"O=P([O-])([O-])OP(=O)(O)O.[K+].[K+] [K2H2P2O7, Dipotassium Pyrophosphate]",reduce calcification to the same extent,
"O=P([O-])([O-])OP(=O)(O)O.[Na+].[Na+] [Na2H2P2O7, disodium pyrophosphate, reference compound]",reduce calcification to the same extent,reduced to the minimum
